In paper doi:10.1101/2022.01.05.475095v1 (biorxiv, 2022) one finds inhibition and IC50 data, which are given here for 18 compounds.

The target of test [1] is T1, SARS-CoV-2 Mpro (Severe acute respiratory syndrome coronavirus 2, UniProt P0DTD1). The test is described as follows: biochemical. To be noted: read-out: Mpro % inhibition at 10 µM.
Test [2] has as its target T1, SARS-CoV-2 Mpro. Nature of the test: biochemical. The note with it: read-out: % inhibition at 10 μM.
The target of test [3] is T1, SARS-CoV-2 Mpro. Nature of the test: fluorogenic quenched peptide cleavage assay. Format: biochemical.

Read-outs that look alike come from different tables or passages of the source.

`CC1(C)OC2=C(C(=O)C(=O)c3ccccc32)C1n1cc(-c2ccccc2)nn1` (stereo not shown) [compound 159]: the inhibition at 10 µM at SARS-CoV-2 Mpro [1] was determined as 35 ± 1%.
On the same count and under the same terms, then `CC1(C)OC2=C(C(=O)C(=O)c3ccccc32)C1n1cc(CNC2=CC(=O)c3ccccc3C2=O)nn1` (stereo not shown) [compound 189], with 25 ± 2%.
`CC1(C)OC2=C(C(=O)C(=O)c3ccccc32)C1n1cc(CNC2=C(Br)C(=O)c3ccccc3C2=O)nn1` (stereo not shown) [compound 191]: the inhibition at 10 µM at SARS-CoV-2 Mpro [1] worked out at 55 ± 3%.
In the case of `Cc1ccc(S(=O)(=O)n2cc(CN(C3=CC(=O)c4ccccc4C3=O)c3ccc(Br)cc3)nn2)cc1` [compound 314], at SARS-CoV-2 Mpro [1], the inhibition at 10 µM stood at 36 ± 2%.
On to `CC(=O)c1ccc(N(Cc2cn(S(=O)(=O)c3ccc(C)cc3)nn2)C2=CC(=O)c3ccccc3C2=O)cc1` [compound 318, 318], for which the inhibition at 10 µM at SARS-CoV-2 Mpro [2] is 45 ± 13%.
Regarding `Cc1ccc(S(=O)(=O)n2cc(CNC3=CC(=O)c4ccccc4C3=O)nn2)cc1` [compound 319], at SARS-CoV-2 Mpro [1], the inhibition at 10 µM is 5 ± 2%.
In the case of `Cc1ccc(S(=O)(=O)n2cc(CNC3=C(Cl)C(=O)c4ccccc4C3=O)nn2)cc1` [compound 320, 320], the inhibition at 10 µM at SARS-CoV-2 Mpro [1] stood at 11 ± 6%.
Turning to `Cc1ccc(S(=O)(=O)n2cc(CNC3=C(Br)C(=O)c4ccccc4C3=O)nn2)cc1` [compound 321, 321], the inhibition at 10 µM on SARS-CoV-2 Mpro [1] was determined as 40 ± 8%.
On to `O=C1C(Sc2ccccc2)=C(Sc2ccccc2)C(=O)c2ccccc21` [compound 379, 379], for which, at SARS-CoV-2 Mpro [3], the IC50 was determined as 630 ± 40 nM.
As for `O=C1C(Sc2ccccc2)=C(Sc2ccccc2)C(=O)c2ccccc21` [compound 379], the inhibition at 10 µM on SARS-CoV-2 Mpro [1] is 100%.
Consider `O=C1C(Sc2ccc(Br)cc2)=C(Sc2ccc(Br)cc2)C(=O)c2ccccc21` [compound 380, 380], for which, on SARS-CoV-2 Mpro [1], the inhibition at 10 µM amounted to 12 ± 3%.
For the compound `COc1ccc(SC2=C(Sc3ccc(OC)cc3)C(=O)c3ccccc3C2=O)cc1` [compound 382, 382], the midpoint of inhibition against SARS-CoV-2 Mpro [3], the IC50, lay at 410 ± 20 nM.
Turning to `COc1ccc(SC2=C(Sc3ccc(OC)cc3)C(=O)c3ccccc3C2=O)cc1` [compound 382], the inhibition at 10 µM at SARS-CoV-2 Mpro [1] was 100%.
For `CC(=O)NC1=CC(=O)c2cccc(O)c2C1=O` [compound 414, 414], on SARS-CoV-2 Mpro [1], the inhibition at 10 µM came to 29 ± 2%.
Turning to `CC(=O)NC1=CC(=O)c2c(cccc2[N+](=O)[O-])C1=O` [compound 415, 415], the half-maximal inhibitory concentration (IC50) at SARS-CoV-2 Mpro [3] turned out to be 5000 ± 200 nM. Also, the inhibition at 10 µM at SARS-CoV-2 Mpro [1] worked out at 100%.
Turning to `Cc1ccc(S(=O)(=O)c2cccc3c2C(=O)c2ccccc2C3=O)cc1` [compound 477, 477], the inhibition at 10 µM at SARS-CoV-2 Mpro [1] amounted to 5 ± 2%.
Consider `CC1(C)OC2=C(CC1Br)C(=O)C(=NNc1ccccc1)c1ccccc12` (stereo not shown) [compound 666, 666], for which the inhibition at 10 µM on SARS-CoV-2 Mpro [1] stood at 5 ± 5%.
`CC1(C)CC2=C(O1)c1ccccc1C(=NNc1ccccc1)C2=O` [compound 673, 673]: the inhibition at 10 µM on SARS-CoV-2 Mpro [1] amounted to 8 ± 3%.
